Measured values from US10800777B2, “Polymorphic forms of VENCLEXTA” (Mylan Laboratories Limited, priority 2016, dated 2020).
“Also recorded” adds a separate entry of the source.

Assay: Storage stability of venetoclax polymorphs, analyzed by PXRD for polymorph integrity
Format: physicochemical
Experimental: The present invention provides new polymorphs of venetoclax which may be characterized by powder X-ray diffraction (PXRD). Thus, samples of each disclosed polymorph were analyzed by PXRD on a BRUKER D-8 Discover powder diffractometer equipped with a goniometer of θ/2θ configuration and Lynx Eye detector. The Cu-anode X-ray tube was operated at 40 kV and 30 mA. The experiments were conducted over the […] of 2.0°-50.0°, 0.030° step size, and 0.4 seconds step time.
Thus, the stability of samples of amorphous venetoclax, as well as crystalline forms M9, M10, and M21 were stored at 40° C./75% relative humidity (RH) and at 25° C./60% relative humidity (RH) for 3 months. The samples were analyzed by PXRD for polymorph integrity.

CC1(C)CCC(CN2CCN(c3ccc(C(=O)NS(=O)(=O)c4ccc(NCC5CCOCC5)c([N+](=O)[O-])c4)c(Oc4cnc5[nH]ccc5c4)c3)CC2)=C(c2ccc(Cl)cc2)C1 [form M21, 4-[4-[[2-(4-chlorophenyl)-4,4-dimethylcyclohexen-1-yl]methyl]piperazin-1-yl]-N-[3-nitro-4-(oxan-4-ylmethylamino)phenyl]sulfonyl-2-(1H-pyrrolo[2,3-b]pyridin-5-yloxy)benzamide]
PXRD (polymorph integrity) (at 25° C./60% RH, 3 months, listed as M21): no change in PXRD pattern; also recorded: Stable | PXRD (polymorph integrity) (at 25° C./60% RH, Initial, listed as M21): Crystalline | PXRD (polymorph integrity) (at 40° C./75% RH, 3 months, listed as M21): no change in PXRD pattern; also recorded: Stable | PXRD (polymorph integrity) (at 40° C./75% RH, Initial, listed as M21): Crystalline

CC1(C)CCC(CN2CCN(c3ccc(C(=O)NS(=O)(=O)c4ccc(NCC5CCOCC5)c([N+](=O)[O-])c4)c(Oc4cnc5[nH]ccc5c4)c3)CC2)=C(c2ccc(Cl)cc2)C1 [Amorphous, 4-[4-[[2-(4-chlorophenyl)-4,4-dimethylcyclohexen-1-yl]methyl]piperazin-1-yl]-N-[3-nitro-4-(oxan-4-ylmethylamino)phenyl]sulfonyl-2-(1H-pyrrolo[2,3-b]pyridin-5-yloxy)benzamide]
PXRD (polymorph integrity) (at 25° C./60% RH, 1 months): Stable | PXRD (polymorph integrity) (at 25° C./60% RH, 2 months): Stable | PXRD (polymorph integrity) (at 25° C./60% RH, 3 months): Stable | PXRD (polymorph integrity) (at 25° C./60% RH, 3 months, listed as amorphous venetoclax): no change in PXRD pattern | PXRD (polymorph integrity) (at 25° C./60% RH, 15 days): Stable | PXRD (polymorph integrity) (at 25° C./60% RH, Initial): Amorphous | PXRD (polymorph integrity) (at 40° C./75% RH, 1 months): Stable | PXRD (polymorph integrity) (at 40° C./75% RH, 2 months): Stable | PXRD (polymorph integrity) (at 40° C./75% RH, 3 months): Stable | PXRD (polymorph integrity) (at 40° C./75% RH, 3 months, listed as amorphous venetoclax): no change in PXRD pattern | PXRD (polymorph integrity) (at 40° C./75% RH, 15 days): Stable | PXRD (polymorph integrity) (at 40° C./75% RH, Initial): Amorphous

CC1(C)CCC(CN2CCN(c3ccc(C(=O)NS(=O)(=O)c4ccc(NCC5CCOCC5)c([N+](=O)[O-])c4)c(Oc4cnc5[nH]ccc5c4)c3)CC2)=C(c2ccc(Cl)cc2)C1 [form M9, 4-[4-[[2-(4-chlorophenyl)-4,4-dimethylcyclohexen-1-yl]methyl]piperazin-1-yl]-N-[3-nitro-4-(oxan-4-ylmethylamino)phenyl]sulfonyl-2-(1H-pyrrolo[2,3-b]pyridin-5-yloxy)benzamide]
PXRD (polymorph integrity) (at 25° C./60% RH, 3 months, listed as M9): no change in PXRD pattern; also recorded: Stable | PXRD (polymorph integrity) (at 25° C./60% RH, Initial, listed as M9): Crystalline | PXRD (polymorph integrity) (at 40° C./75% RH, 3 months, listed as M9): no change in PXRD pattern; also recorded: Stable | PXRD (polymorph integrity) (at 40° C./75% RH, Initial, listed as M9): Crystalline

CC1(C)CCC(CN2CCN(c3ccc(C(=O)NS(=O)(=O)c4ccc(NCC5CCOCC5)c([N+](=O)[O-])c4)c(Oc4cnc5[nH]ccc5c4)c3)CC2)=C(c2ccc(Cl)cc2)C1 [form M10, 4-[4-[[2-(4-chlorophenyl)-4,4-dimethylcyclohexen-1-yl]methyl]piperazin-1-yl]-N-[3-nitro-4-(oxan-4-ylmethylamino)phenyl]sulfonyl-2-(1H-pyrrolo[2,3-b]pyridin-5-yloxy)benzamide]
PXRD (polymorph integrity) (at 25° C./60% RH, 3 months, listed as M10): no change in PXRD pattern; also recorded: Stable | PXRD (polymorph integrity) (at 25° C./60% RH, Initial, listed as M10): Crystalline | PXRD (polymorph integrity) (at 40° C./75% RH, 3 months, listed as M10): no change in PXRD pattern; also recorded: Stable | PXRD (polymorph integrity) (at 40° C./75% RH, Initial, listed as M10): Crystalline
